The subject of one experiment is HCC1419. Description: Cell growth inhibition assay (Cell Titer Glo), HCC1419. The format is cell-based. The note with it: Homo sapiens. The procedure: (§1) Human tumor cell lines from breast, BT474, BT474-J4, JIMT-1, MDA-MB-361, SK-BR-3, HCC1419, UACC893 and HCC202 in RPMI 1640 containing 10% FBS media; SK-BR-3-W13 and BT474-J4 in RPMI 1640 containing 10% FBS and 1 μM Compound A (in this assay, Compound A, was used in the form of the ditosylate monohydrate salt) media were kept in a humidified incubator at 37° C. in 95% air and 5% CO2 JIMT-1 is a line derived from a patient clinically resistant to trastuzumab (Herceptin®). SK-BR-3-W13 is a single cell clone isolated by a cloning cylinder after a single treatment of SK-BR-3 cells with 0.5 μM Compound A. BT474-J4 is a single cell clone derived from BT474 cells that were selected to grow in Compound A to a concentration of 3 μM.
(§2) All cells were cultured without Compound A for a minimum of 72 hours prior to cell plating. Cells were assayed in a 96-well tissue culture plate (NUNC 136102) of RPMI containing 10% FBS at 2,000 cells/well. Approximately 24 hours after plating, cells were exposed to ten, two-fold or three-fold serial dilutions of Compound A or the combination of the two agents at a constant molar to molar ratio of 10:1 Compound A to Compound B (in this assay, Compound B refers to N-{(1S)-2-amino-1-[(3,4-difluorophenyl)methyl]ethyl}-5-chloro-4-(4-chloro-1-methyl-1H-pyrazol-5-yl)-2-furancarboxamide and was used as the free or unsalted compound) in RPMI media containing 10% FBS. Cells were incubated in the presence of compounds for 3 days. ATP levels were determined by adding Cell Titer Glo® (Promega) according to the manufacturer's protocol. Briefly, Cell Titer Glo® was added each plate, incubated for 20 minutes then luminescent signal was read on the SpectraMax L plate reader with a 0.5 sec integration time.
(§3) Inhibition of cell growth was estimated after treatment with Compound A or the combination of Compound A and Compound B for three days and comparing the signal to cells treated with vehicle (DMSO). Cell growth was calculated relative to vehicle (DMSO) treated control wells. Concentration of compound that inhibits 50% of control cell growth (IC50) was interpolated using nonlinear regression with the equation, y=(A+(B−A)/(1+(C/x)̂D)))), where A is the minimum response (ymin), B is the maximum response (ymax), C is the inflection point of the curve (EC50) and D is the Hill coefficient. […]
(§4) In general, a CI value <0.9, between 0.9 and 1.1, or >1.1 indicates synergy, additivity and antagonism, respectively. In general, the smaller the CI number, the greater is the strength of synergy. […]
A general note: Cellular ATP, detected with luciferase, serves as a proxy for viable cell number.

A further experiment concerns HCC202. In words: Cell growth inhibition assay (Cell Titer Glo), HCC202. The format is cell-based, Human. The note with it: for sensitivity of the line to single agent: HCC202, E545K PIK3CA mutation; for IC50: Homo sapiens, 72 h, HCC202, PIK3CA E545K, 3 days, single agent. The procedure: as §1, §2, §3, §4
A further experiment deals with BT474. In words: Cell growth inhibition assay (Cell Titer Glo), BT474. It is filed as cell-based. The settings on record: Homo sapiens. The method, then:
as §1, §2, §3, §4

Another experiment concerns JIMT1. In words: Cell growth inhibition assay (Cell Titer Glo), JIMT1. It is filed as cell-based. The settings on record: Homo sapiens. The method, then: as §1, §2, §3, §4
In the next experiment the test system is BT474-J4. In words: Cell growth inhibition assay (Cell Titer Glo), BT474-J4. The format is cell-based, Human. The settings on record: for IC50: Homo sapiens, 72 h, BT474-J4 (resistant to Compound A and trastuzumab), PIK3CA K111N, 3 days, single agent. The procedure: as §1, §2
Inhibition of cell growth was estimated after treatment with Compound A or the combination of Compound A and Compound B for three days and comparing the signal to cells treated with vehicle (DMSO). Cell growth was calculated relative to vehicle (DMSO) treated control wells. […]

For another experiment, the system named is MDA-MB-361. Description: Cell growth inhibition assay (Cell Titer Glo), MDA-MB-361. It is filed as cell-based, Human. The note with it: for IC50: Homo sapiens, 72 h, MDA-MB-361, PIK3CA E545K, 3 days, single agent; for sensitivity of the line to single agent: MDA-MB-361, E545K PIK3CA mutation. The method, then:
as §1, §2, §3, §4

The subject of another experiment is SK-BR-3. Description: Cell growth inhibition assay (Cell Titer Glo), SK-BR-3. It is filed as cell-based. The settings on record: Homo sapiens. The method, then:
as §1, §2, §3, §4

The subject of a further experiment is SK-BR3-W13. Description: Cell growth inhibition assay (Cell Titer Glo), SK-BR3-W13. The format is cell-based. The settings on record: Homo sapiens. The procedure: as §1, §2, §3, §4
For a further experiment, the system named is KPL4. Description: Cell growth inhibition assay (Cell Titer Glo), KPL4. It is filed as cell-based, Human. The note with it: for IC50: Homo sapiens, 72 h, KPL4, PIK3CA H1047R, 3 days, single agent; for sensitivity of the line to single agent: KPL-4, H1047R PIK3CA mutation.
The test system of the next experiment is UACC893. In words: Cell growth inhibition assay (Cell Titer Glo), UACC893. It is filed as cell-based, Human. The note with it: for IC50: Homo sapiens, UACC-893, 72 h, UACC893, PIK3CA H1047R, 3 days, single agent; for sensitivity of the line to single agent: UACC893, H1047R PIK3CA mutation. The procedure:
as §1, §2, §3, §4

Setting [1] is: 72 h, HCC1419, PIK3CA WT, 3 days, single agent, read-out: Single agent (IC50, μm).
Setting [2] is: HCC1419, single agent, bound stated, read-out: IC50.
[3] abbreviates: BT-474, 72 h, BT474, PIK3CA K111N, 3 days, single agent, read-out: Single agent (IC50, μm).
Setting [4] is: BT-474, BT474, single agent, bound stated, read-out: IC50.
The mark [5] stands for this setting: JIMT-1, 72 h, JIMT1 (resistant to Compound A and trastuzumab), PIK3CA C420R, 3 days, single agent, read-out: Single agent (IC50, μm).
Setting [6] is: JIMT-1, JIMT1, single agent, bound stated, read-out: IC50.
The mark [7] stands for this setting: 72 h, SK-BR-3, PIK3CA WT, 3 days, single agent, read-out: Single agent (IC50, μm).
[8] abbreviates: SK-BR-3, single agent, bound stated, read-out: IC50.
[9] abbreviates: 72 h, SK-BR3-W13 (resistant to Compound A and trastuzumab), 3 days, single agent, read-out: Single agent (IC50, μm).
Setting [10] is: SK-BR-3-W13, single agent, bound stated, read-out: IC50.

Each structure is given as a SMILES string. Where two headings read alike, the source gives them in different places.

In the case of `CS(=O)(=O)CCNCc1ccc(-c2ccc3ncnc(Nc4ccc(OCc5cccc(F)c5)c(Cl)c4)c3c2)o1` [Compound A, N-{3-Chloro-4-[(3-fluorobenzyl)oxy]phenyl}-6-[5-({[2-(methanesulphonyl)ethyl]amino}methyl)-2-furyl]-4-quinazolinamine, reference compound], the concentration for half-maximal inhibition (IC50) was 84 ± 34 nM in the experiment with HCC1419 (setting [1]); below 200 nM in the experiment with HCC1419 (setting [2]); 2408 ± 22 nM in the experiment on HCC202; 171 ± 34 nM with BT474 (setting [3]); below 200 nM with BT474 (setting [4]); 7780 ± 1270 nM in the experiment with JIMT1 (setting [5]). Further, the IC50 in the experiment on JIMT1 (setting [6]) was above 5000 nM; in the experiment on BT474-J4 it was 5180 ± 2200 nM; with MDA-MB-361, above 10000 nM; in the experiment on SK-BR-3 (setting [7]), 196 ± 70 nM; in the experiment on SK-BR-3 (setting [8]), below 200 nM; in the experiment with SK-BR3-W13 (setting [9]), 5600 ± 1050 nM. Besides, the IC50 in the experiment on SK-BR3-W13 (setting [10]) is above 5000 nM; in the experiment on KPL4, 430 ± 159 nM; in the experiment on UACC893, 492 ± 498 nM. For the same molecule, the “sensitivity of the line to single agent” value in the experiment on HCC202 was “less sensitive”; with MDA-MB-361 it was “less sensitive”; in the experiment on KPL4, “sensitive”; with UACC893 it was “sensitive”.

As to `Cn1ncc(Cl)c1-c1cc(C(=O)N[C@H](CN)Cc2ccc(F)c(F)c2)oc1Cl` [Compound B, N-{(1S)-2-amino-1-[(3,4-difluorophenyl)methyl]ethyl}-5-chloro-4-(4-chloro-1-methyl-1H-pyrazol-5-yl)-2-furancarboxamide], the IC50 is 573 ± 154 nM with HCC1419 (setting [1]); above 500 nM with HCC1419 (setting [2]); 919 ± 356 nM in the experiment with HCC202; above 1000 nM with BT474 (setting [3]); above 500 nM with BT474 (setting [4]); above 1000 nM in the experiment with JIMT1 (setting [5]). The concentration for half-maximal inhibition (IC50) in the experiment on JIMT1 (setting [6]) is above 1000 nM; with BT474-J4, 142 ± 47 nM; with MDA-MB-361, 151 ± 22 nM; with SK-BR-3 (setting [7]), above 1000 nM; with SK-BR-3 (setting [8]), above 500 nM; in the experiment with SK-BR3-W13 (setting [9]), above 1000 nM. The IC50 is above 1000 nM in the experiment with SK-BR3-W13 (setting [10]), 19 ± 4 nM in the experiment with KPL4 and 30 ± 27 nM in the experiment with UACC893. For the same molecule, the “sensitivity of the line to single agent” value is “less sensitive” in the experiment on HCC202, “less sensitive” in the experiment with MDA-MB-361, “sensitive” in the experiment on KPL4 and “sensitive” with UACC893. Besides, the “sensitivity of the line to cell growth inhibition” value in the experiment with BT474-J4 (BT474-J4, single agent) is “sensitive”.

The IC50 is the concentration needed to halve the response being measured.

For the origin of these results see patent US20150272952A1, “Combination” (GLAXOSMITHKLINE LLC, priority 2012, published 2015).
